Test results taken from article PMC9405135, “Tuning the Biological Activity of Camphorimine Complexes through Metal Selection” (Antibiotics, 2022).
Like-named read-outs stand apart in the source and are kept apart here.

How the values were obtained:
OVCAR3 cells [1] = experiment: MTT cytotoxicity, OVCAR3 ovarian cancer cells; conditions: for IC50: read-out: IC50 OVCAR3; for SI = selectivity index = IC50(HDF)/IC50(OVCAR3): HDF versus OVCAR3, 24 h
[2] = Reduction potential by cyclic voltammetry; assay type: physicochemical; design: E1/2red (reduction potential, footnote d): reference not given here; conditions: Bu4NBF4/CH3CN electrolyte, ±10 mV; for Epred (reduction potential): versus SCE; for E1/2red (reduction potential, footnote d): half-wave potential, footnote d prints [28]
A2780 cells = experiment: MTT cytotoxicity, A2780 ovarian cancer cells; conditions: read-out: IC50 A2780, 24 h incubation
ΦX174 supercoiled DNA [3] = system: ΦX174 supercoiled DNA; design: method as in PMID 31671298; conditions: previously shown; cited from earlier work
HDF fibroblasts = experiment: MTT cytotoxicity, HDF normal fibroblasts; conditions: read-out: IC50 HDF, 24 h incubation
V79 fibroblasts = experiment: MTT cytotoxicity, V79 normal fibroblasts; conditions: read-out: IC50 V79, 24 h incubation
OVCAR3 cells [4] = experiment: Metal distribution in single cells by nuclear microscopy (PIXE); assay type: cell-based, human; conditions: 1 at 45 μM 24 h, 9 at 30 μM 3 h
Protocol: The distribution of copper and gold in treated cells was inspected by nuclear microscopy, making use of the PIXE technique to map and assess elemental contents in single cells. The nuclear microscopy techniques offer several advantages, regarding relatively high spatial resolution and sensitivity for a wide range of elements with physiological roles and those with pharmaceutical interest, in whole cells, while preserving most of their in vivo conditions.
OVCAR3 cells (ca. 1 × 10^6) were prepared for nuclear microscopy experiments by seeding the cells on a 100 nm thick silicon nitride membrane (Silson Ltd., Southam, UK), contained in six-well plates, and incubated overnight as described previously. Cells were incubated with complexes 1 and 9 at concentrations corresponding to the IC50 (45 μM for 24 h and 30 μM for 3 h, respectively). After incubation, the cells were analyzed at the nuclear microscopy facility of the C2TN/IST with a 2.0 MeV proton beam focused down to 3 × 4 µm^2 dimensions. Images of the micro-distributions of Cu and Au in OVCAR3 cells, as well as minor and trace physiological elements (e.g., P, S, K, and Fe), were obtained using the PIXE multielemental technique. Images of whole OVCAR3 cells were taken with 30 × 30 µm^2 scan sizes. Acquisition of data imaging and spectral analysis was performed using OMDAQ 2007 (Oxford Microbeams Ltd., Oxford, UK).

ΦX174 supercoiled DNA [5] = experiment: Complex-DNA interaction, agarose gel electrophoretic mobility; assay type: binding; conditions: 0.5-15 µM complex, 24 h at 37 °C
Protocol: Therefore, we focused our studies mostly on the silver (5 and 7) and gold complexes (8 and 9) having the monocamphor ligands ^1A and ^2A, respectively. Complex 1 was also included for comparison. We evaluated the complexes’ ability to interact with DNA, by visualizing in vitro conformational changes in ΦX174 supercoiled DNA using agarose gel electrophoresis assays.
The DNA binding activity of the metal complexes was assessed through their ability to alter the electrophoretic mobilities of the covalently closed circular (ccc) and open circular (oc) forms of ΦX174 supercoiled DNA as previously described. Briefly, a mixture containing 200 ng of ϕX174 DNA (Promega, Madison, WI, USA) and different concentrations of the metal complexes was prepared. After incubation for 24 h at 37 °C in the dark, the samples were run in a 0.8% agarose gel in TAE buffer for 3 h at 90 V. The gel obtained was then stained using a 3× GelRed® (Biotium, Fremont, CA, USA) solution in H2O and imaged in an AlphaImagerEP (Alpha Innotech, San Leandro, CA, USA).

[6] = Complex stability in cellular medium by UV/Vis spectroscopy; assay type: physicochemical; conditions: DMSO, DMEM with 1% DMSO, DMEM with 1% DMSO + 10% FBS; 48 h
Protocol: The stability in cellular medium of the complexes was evaluated for 48 h, using UV/Vis spectroscopy. The absorption spectrum was recorded for each complex dissolved in (a) 100% DMSO, (b) colorless DMEM with 1% DMSO, and (c) colorless DMEM with 1% DMSO + 10% FBS [30]. […] As low concentrations were used in the biological studies, we expect that both the stability and the solubility were not impaired.

OVCAR3 cells [7] = experiment: Lipid peroxidation (MDA, TBARS) assay; assay type: cell-based, human; conditions: OVCAR3 cells treated 6 h; 1 at 100 μM, 5 at 50 μM, 9 at 20 μM; mean ± SD
Protocol: Measurement of MDA relies on the detection of thiobarbituric acid (TBA)-reactive compounds generated from the decomposition of lipid peroxidation products. This reaction, which takes place under acidic conditions at 95 °C, results in the formation of an MDA–TBA adduct that can be quantified by its absorbance at 532 nm. […] Additionally, the MDA levels induced by the complexes correlated with the levels of ROS, pointing the involvement of ROS production in the mechanism of action of complexes under study and, consequently, the peroxidation of the membrane lipids, as supported by the correlation between the production of ROS and the levels of lipid peroxides, particularly for complexes 5 and 9.
The malondialdehyde (MDA) content in lipid extracts of OVCAR3 cells was measured using a colorimetric kit (BioVision, Milpitas, CA, USA), a method that relies on the reaction with thiobarbituric acid (TBARS assay). Briefly, OVCAR3 cells (5 × 10^5 cells/2 mL medium) were seeded in six-well plates and left to adhere for 24 h. […] The resulting cell pellet was treated following the kit recommended protocol. […] Then, 200 μL aliquots were then taken and transferred to a 96-well plate for MDA quantification at 532 nm. […]

OVCAR3 cells [8] = experiment: Intracellular ROS detection by H2DCF-DA; assay type: cell-based, human; conditions: 1-4 at 10-100 µM, 5-9 at 0.1-50 µM, 1 h
Protocol: The molecular probe dichlorodihydrofluorescein diacetate (H2DCF-DA) was used to assess the levels of ROS, e.g., hydrogen peroxide, hydroxyl radicals, and peroxynitrite, generated in response to the effect of the complexes. This compound suffers oxidation and produces a fluorescent compound (DCF) in the presence of ROS [31]. The induction of intracellular ROS by the compounds (metal precursors and copper, silver, and gold complexes) was analyzed at λexc. = 492 nm 517 nm emission using a Varioskan LUX scanning multimode reader (Thermo Fisher Scientific).
Intracellular ROS levels, mainly H2O2, were measured using dihydro-2′7′dichlorofluorescein diacetate (H2DCF-DA). This cell-permeable molecular probe is de-esterified within the cell and turns to highly fluorescent 2′,7′-dichlorofluorescin (DCF) upon oxidation with ROS. For the assays, OVCAR3 cells (2 × 10^4 cells /well) were seeded in 96-well plates and left to adhere overnight. The medium was then replaced with a solution of 10 μM H2DCF-DA in colorless DMEM (FluoroBrite™ DMEM, Gibco®, Waltham, MA, USA) and cells were incubated at 37 °C for 30 min. […] DCF fluorescence was measured using a Varioskan Lux multimode microplate reader (ThermoFisher Scientific, Waltham, MA, USA) at 492 nm excitation and 517 nm emission. Results of fluorescence were expressed as the fold change in fluorescence levels compared with controls.

[9] = system: caspase-3/7 in OVCAR3 cells; experiment: Caspase-3/7 activation (Caspase-Glo 3/7 assay); assay type: cell-based, human; conditions: OVCAR3, 24 h, concentrations below IC50
Protocol: Caspases are a family of cysteine proteases playing central roles in the regulation of cellular processes such as programmed cell death. Among them, caspase-3 and -7 are considered executioners of the apoptosis pathways. We investigated the possible activation of apoptotic events in OVCAR3 cells treated by camphorimine complexes 1, 5, and 9.
The activities of caspase-3 and -7 were assessed using the Caspase-Glo® 3/7 assay (Promega, Madison, WI, USA). The assay kit provides a proluminescent caspase-3/7 substrate (DEVD-aminoluciferin) and luciferase in a reagent optimized for caspase-3/7 activity, luciferase activity, and cell lysis. In the presence of caspase 3/7, this substrate is cleaved, and aminoluciferin is released and consumed by luciferase, which generates a luminescent signal proportional to the caspase activity present in the cells. The assay was carried out in a 96-well plate format with the OVCAR3 cells treated with complexes 1, 5, and 9 for 24 h at concentrations below their IC50 according to a previously described method. […] Results (mean ± SD) were expressed as relative luminescent units (RLU).

OVCAR3 cells [10] = experiment: Superoxide generation (NBT assay); assay type: cell-based, human; conditions: 1 at 50 and 100 µM, 5 at 20 and 50 µM, 9 at 10 and 20 µM
Protocol: The ROS species superoxide (O2^•−) can be detected with NBT, a cell-permeant dye that can cross the cell membrane and be reduced by intracellular free radicals (superoxide anions) to form formazan particles, which can be detected as blue precipitates in the cells.
The nitro blue tetrazolium (NBT) assay was carried out adapting a previously described method. This assay was used to determine the ability of cells to produce superoxide anion upon treatment with the compounds. During the treatment, NBT is reduced by superoxide anion, resulting in dark-blue formazan particles. […] Then, the medium was discarded, and the blue formazan particles were dissolved in 200 μL of 90% DMSO (90% DMSO:10% NaOH 0.1 N with 0.1% SDS). The resulting NBT formazan was measured at 560 nm using a plate spectrophotometer.

Epred (reduction potential) [2] [Volt] | E1/2red (reduction potential, footnote d) [2] | Molecule | IC50 (OVCAR3 cells [1]; MTT, 24 h incubation) [µM] | IC50 (A2780 cells) [µM] | SI = selectivity index = IC50(HDF)/IC50(OVCAR3) (OVCAR3 cells [1]) | IC50 (HDF fibroblasts) [µM] | IC50 (V79 fibroblasts) [µM] | further results
−0.043 |  | CC(=O)[O-].[Ag+] [Ag(CH3COO), silver acetate, reference compound] | 3.38 ± 2 |  |  |  |  | 
 | 0.58 ^d Volt | [Cl][Cu][Cl] [CuCl2, reference compound] | > 100 |  |  |  |  | 
−0.46 |  | [Cl][Cu] [CuCl, reference compound] | > 100 |  |  |  |  | 
 |  | N.N.[Cl][Pt][Cl] [cisplatin, reference compound] | 13 ± 4.7 | 21 ± 5 |  |  |  | interaction with DNA (change of electrophoretic mobility) (ΦX174 supercoiled DNA [3]): bind to DNA and induce extensive electrophoretic mobility changes in DNA
 | 0.48 ^d Volt | [CuCl2((OC10H14N)2C6H4-p)] [Complex 2] | 37.6 ± 8.5 | 49.5 ± 14 | >3 | > 100 | > 100 | 
 | 0.47 ^d Volt | [CuCl2(OC10H14NC6H5)]·HCl·½H2O [Complex 4] | 115 ± 25 | > 100 | >1 | > 100 | > 100 | 
−0.49 |  | [{CuCl}2{OC10H14N(C6H4NH2)}] [Complex 1] | 72.4 ± 9.1 | 45.6 ± 11 | 1.6 | 116 ± 27 | 34.5 ± 9.7 | cellular distribution of the metal (OVCAR3 cells [4]): uncharacteristic map of copper distribution; interaction with DNA (change of electrophoretic mobility) (ΦX174 supercoiled DNA [5]): none of them interacted significantly with DNA; stability in cellular medium (UV/Vis spectra) [6]: slightly lower; MDA (lipid peroxide content) (OVCAR3 cells [7]): 290 ± 15 pmoles/10^6 Cells; production of ROS (H2DCF-DA, relative to untreated cells) (OVCAR3 cells [8]): followed a similar trend; caspase-3/7 activation [9]: low caspase activation; superoxide ROS levels (NBT reduction) (OVCAR3 cells [10]): increased the ROS levels in a dose-dependent manner
 | −0.46 ^d Volt | [{CuCl}3{(OC10H14N)2,μ-C6H4-p)}] [Complex 3] | 37.5 ± 7.7 | 43.1 ± 9.1 | 1.3 | 48.3 ± 27 | 44.9 ± 10 | 

Molecule | Epred (reduction potential) [2] [Volt] | E1/2red (reduction potential, footnote d) [2] | IC50 (OVCAR3 cells [1]; MTT, 24 h incubation) [µM] | IC50 (A2780 cells) [µM] | SI = selectivity index = IC50(HDF)/IC50(OVCAR3) (OVCAR3 cells [1]) | IC50 (HDF fibroblasts) [µM] | IC50 (V79 fibroblasts) [µM] | further results
O=[N+]([O-])[O-].[Ag+] [Ag(NO3), silver nitrate, reference compound] | 0.18 |  |  |  |  |  |  | IC50 (OVCAR3 cells [1]): 2.66 ± 1 µM
